In US12491514B2, “Device, system, and method for trapping tissue samples” (University of Washington, priority 2019, dated 2025):

Key:
U87 glioma cuboids = assay: Drug treatment of U87 glioma cuboids on the microfluidic device, SYTOX green/Hoechst cell death staining; type: cell-based; conditions: for cell death response, mean fluorescence ratio SG dead nuclear to Hoechst pan-nuclear: 2 days (day 1 to day 3), U87 cuboids in device
Description: U87 cuboids were cultured in collagen hydrogel. We prepared 80% collagen (Corning rat tail collagen type 1, 354236, 3-4 mg/mL), 10% 10×PBS, and 10% serum-free medium. We then used filtered-sterilized 1M NaOH to neutralize the pH to ˜7.2. For culture in 6 well plates, cuboids were cultured in 1 mL collagen on top of a 0.4 μm filter Transwell PFTE membrane insert (PICMORG50, Millipore) with 1.3 mL culture medium placed below. Cuboids were cultured both with and without an additional layer of pre-gelled 1 mL collagen below with similar histology and staining observed, apart from a relatively flatter shape often seen without the extra collagen layer. The culture medium contained Neurobas al-A medium (Invitrogen) with 25% heat-inactivated horse serum (Sigma), Glutamax (Invitrogen), 2× penicillin/streptomycin (Invitrogen), and growth factors (EGF 20 ng/mL and FGF 20 ng/mL, Preprotech or Invitrogen). Cisplatin (3 mM stock in dH2O, MedChem Express) was diluted in cell culture medium for the drug treatment experiment. Liver cuboids were cultured in 1 mL of collagen hydrogel on a Millipore insert with constant shaking. Culture medium was William's Medium (with L-glutamine, Invitrogen, Scotland) supplemented with 25 mM glucose (Sigma-Aldrich, USA), 30 nM insulin (ITS+premix, Zen-Bio, Inc., USA), 1 nM EGF (Preprotech), 5% Pen Strep (Sigma-Aldrich, USA), 100 nM glucagon (Sigma-Aldrich, USA). Live U87 glioma cuboids were stained for 1 hour, 37° C., with the following dyes (individually or in combination) diluted in culture medium: Cell Tracker Green CMFDA (Invitrogen, 10 μM), Cell Tracker Orange CMRA (Invitrogen, 10 μM), Hoechst (H; Invitrogen, 16 μM), and/or SYTOX green (SG; Invitrogen, 0.01 μM). […] Mean SG fluorescence was normalized to the average value of untreated cuboids. […] As a straightforward simple measure of cell viability, we measured the mean fluorescence ratio in epifluorescence images of SG dead nuclear fluorescence to Hoechst pan-nuclear fluorescence (FIG. 12B). […]

U87 glioma slices = assay: Previous experiments with U87 glioma slices on and off a microfluidic device, SG/H live viability staining; type: cell-based; conditions: 30 and 100 μM

Question: With `N.N.[Cl][Pt][Cl]` [cisplatin] as the compound, how does the “cell death response, mean fluorescence ratio SG dead nuclear to Hoechst pan-nuclear” value (U87 glioma cuboids; 30 μM) read?
Answer: Its value is “statistically significant response”.

Question: And the “mean increase of SG (SYTOX green dead stain) fluorescence normalized to the mean” value (U87 glioma cuboids; 100 μM, 2-day maximal drug treatment, used as threshold for death)?
Answer: Its value is 1.4.

Question: What about the “cell death response, mean fluorescence ratio SG dead nuclear to Hoechst pan-nuclear” value (U87 glioma cuboids; 100 μM) of the same compound?
Answer: Its value is “showing a trend”.

Question: And the “response by SG/H live viability staining” value (U87 glioma slices)?
Answer: Its value is “cell death”.
